Patent US20030049709A1, “Programmed cell death and Ich-3” (priority 1996, published 2003)

Assays:
[1] = tested on: apoptosis in an cell-free system; conditions: read-out: concentration to cause 50% inhibition of apoptosis; cited from earlier work
[2] = tested on: poly(ADP-ribose) polymerase (PARP) cleavage; conditions: cited from earlier work
embryonic fibroblasts = assay: Granzyme/perforin induced apoptosis of embryonic fibroblasts (Hoechst dye); format: cell-based, mice; conditions: Ich-3−/− EF cells; up to 0.8 μg/ml granzyme with 50 ng/ml perforin
Procedure: FIGS. 9A-9B. Ich-3 deficient EF cells are resistant to Granzyme B and Granzyme 3 induced apoptosis. Embryonic fibroblasts from Ich-3−/− and wild type controls were treated with varying concentrations of granzyme B (FIG. 9A) or granzyme 3 (FIG. 9B) in the presence of a constant amount of perforin (50 ng/ml) for a period of 2 and 8 hrs, respectively. The percentage of apoptosis cells was determined from cell counts after staining with Hoechst dye (Chen et al., 1995). Control wells contained cells alone incubated with or without perforin. Data points represent the percentage of apoptotic cells for a particular dilution of granzyme minus the percentage of apoptotic cells observed in medium alone.
Granule serine protease (GraB) derived from cytotoxic T lymphocytes (CTL) can induce apoptosis in the presence of the pore forming protein perforin (Shi et al., J. Exp. Med. 176:1521-1529 (1992)). To determine the role of ICH-3 in apoptosis induced by GraB, the ability of Ich-3−/− embryonic fibroblasts (EF) to undergo apoptosis following treatment with GraB or Granzyme 3 (Gra3) and perforin was examined. Embryonic fibroblasts from Ich-3−/− mice and wild type littermate controls were treated with varying concentrations of GraB or Gra3 in the presence of a constant amount of perforin (50 ng/ml) for a period of 2 and 8 hrs, respectively.

His-tagged ICH-3 protein = target: T1, His-tagged ICH-3 protein (Mus musculus, UniProt P70343); assay: In vitro cleavage assay of ICH-3 by GraB (Western blot); format: biochemical; conditions: 20 ng GraB, 30° C., 1 hour, 10 mM DTT
T1 construct: An EcoRI fragment from the cDNA clone BSNO12 encoding the full length Ich-3 was subdloned into EcoRI site of pTrcHis (Invitrogen); polyhistidine (six histidines) (N); made in house; host or cells: E. coli
T1 sequence (P70343 81-373): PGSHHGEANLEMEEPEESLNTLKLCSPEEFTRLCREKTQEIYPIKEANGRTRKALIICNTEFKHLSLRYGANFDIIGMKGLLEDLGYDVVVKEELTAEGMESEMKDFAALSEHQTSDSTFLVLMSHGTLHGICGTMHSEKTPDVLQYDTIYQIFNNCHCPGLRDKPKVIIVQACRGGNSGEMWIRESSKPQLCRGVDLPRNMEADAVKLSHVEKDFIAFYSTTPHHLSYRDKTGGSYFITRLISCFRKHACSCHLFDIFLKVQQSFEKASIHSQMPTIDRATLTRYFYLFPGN
Procedure: FIG. 5. Cleavage of ICH-3 protein by granzyme B. 10 μg His-tagged ICH-3 protein purified from E. coli was incubated with 20 ng of GraB in the presence of 10 mM DTT at 30° C. for 1 hour. The result was detected by Western blotting with a peptide antibody against p20 portion of ICH-3.
For in vitro cleavage of ICH-3 by GraB, […] purified His-tagged ICH-3 protein was incubated with 20 ng of GraB in the presence of 50 mM Tris-HCl, pH 7.5, 0.5 mM EDTA, 0.5 mM Sucrose and 10 mM DTT in a total volume of 10 μl. The mixture was incubated at 30° C. for 1 hour and the cleavage was detected by Western blotting with a peptide antibody against the p20 portion of ICH-3.
To examine whether GraB can cleave ICH-3, a His-tagged ICH-3 protein was expressed in E. coli. His-tagged ICH-3 protein purified from bacteria was mixed with or without active GraB and incubated at 30° C. for 1 hour. The cleavage products were identified by Western blot with a peptide antibodies against the p20 or a monoclonal antibody against p10 portion of ICH-3. As show in FIG. 5, the fulll length ICH-3 band disappeared after incubation with GraB: a new 20 kDa band appeared which is detected by an anti-ICH-3 p20 antibody and a new 10 kDa band which is recognized by a monoclonal antibody against p10 of ICH-3. […] Fragments around 30 kDa are the predicted sizes of the cleavages at Asp 59 and Asp 80. […]

[3] = target: ICH-3 protein (mouse) (mouse) (UniProt P70343)
thymocytes = assay: Thymocyte apoptosis under other apoptotic stimuli; format: cell-based, mice; conditions: Ich-3 mutant thymocytes; dexamethasone 1 μM; 10 nM PMA and 500 nM Ca2+ ionophore
Procedure: Thymocytes are sensitive to several apoptotic stimuli such as irradiation and dexamethasone (Cohen, J. J., et al., Annu. Rev. Immunol. 10:267-293 (1992)). To determine if apoptosis of thymocytes is affected by a mutation in the Ich-3 locus, Ich-3−/− thymocytes were examined for defects in apoptosis using a variety of apoptotic induction signals. Thymocytes isolated from 6-7 week old, wild-type and Ich-3 mutant mice were treated with 500 rads of y-irtadiation, or dexamethasone (1(IM, or 10 nM phorbol myristate acetate (PMA) and 500 nM Ca^2+ ionophore, and cell viability was examined 10 hr or 24 hr after treatment by using FCAS analysis after staining with propidine iodine. (Schwartz, et al., “Cell Death—Methods in Cell Biology.” vol. 46, Academic Press).

## Ac-DEVD-CHO
[1]
  IC50: 1000 nM
[2]
  dose inhibiting PARP cleavage: 1 nM

## GraB: granule serine protease required for the cytotoxic activity of lymphocytes
Embryonic fibroblasts
  apoptosis of EF cells: only baseline levels of apoptosis
His-tagged ICH-3 protein
  cleavage of ICH-3: can cleave ICH-3 into p20 and p10

## granzyme B (enzyme)
[3]
  percentage of apoptotic embryonic fibroblasts (Hoechst dye) after GraB and perforin: 40%

## phorbol myristate acetate [PMA and Ca^2+ ionophore]
thymocytes
  resistance of thymocytes to induced apoptosis: not resistant

B1: Gra3: Granzyme 3 (protein, UniProt P49863 27-264, looked up)
Granzyme K: IIGGKEVSPHSRPFMASIQYGGHHVCGGVLIDPQWVLTAAHCQYRFTKGQSPTVVLGAHSLSKNEASKQTLEIKKFIPFSRVTSDPQSNDIMLVKLQTAAKLNKHVKMLHIRSKTSLRSGTKCKVTGWGATDPDSLRPSDTLREVTVTVLSRKLCNSQSYYNGDPFITKDMVCAGDAKGQKDSCKGDSGGPLICKGVFHAIVSGGHECGVATKPGIYTLLTKKYQTWIKSNLVPPHTN
Embryonic fibroblasts
  apoptosis of EF cells: only baseline levels of apoptosis
